In the NIST ThermoML archive (doi:10.1007/s10765-007-0223-x):
Several values for one entry are separate records, joined by “and”; a condition that tells them apart may be missing. Equal entries are not always repeated.

Experiments:
[1] = xn = mol fraction of the nth substance listed; conditions: 101 kPa, Liquid, x2 = 0; for speed of sound: Single path-length method
[2] = 101 kPa, Liquid; for speed of sound: Single path-length method

Cc1ccccc1 [toluene] + COC(C)(C)C
[1]
Conditions | mass density [kg/m3] | speed of sound [m/s]
288.15 K | 871.457 | 1347.5
290.65 K | 869.144 | 1336.3
293.15 K | 866.823 | 1325.3
295.65 K | 864.5 | 1314.3
298.15 K | 862.173 | 1303.4
300.65 K | 859.845 | 1292.6
303.15 K | 857.513 | 1281.9
305.65 K | 855.175 | 1271.2
308.15 K | 852.838 | 1260.5
310.65 K | 850.494 | 1249.8
313.15 K | 848.146 | 1239.2
315.65 K | 845.794 | 1228.6
318.15 K | 843.437 | 1218
320.65 K | 841.075 | 1207.3
323.15 K | 838.706 | 1196.6

COC(C)(C)C [2-methoxy-2-methylpropane]
[2]
Conditions | mass density | speed of sound
288.15 K | 744.861 kg/m3 | 1083.4 m/s and 1082.1 m/s
290.65 K | 742.259 kg/m3 | 1071.6 m/s and 1070.6 m/s
293.15 K | 739.654 kg/m3 | 1060 m/s and 1059.1 m/s
295.65 K | 737.036 kg/m3 | 1048.5 m/s and 1047.8 m/s
298.15 K | 734.406 kg/m3 | 1036.9 m/s and 1036.6 m/s
300.65 K | 731.766 kg/m3 | 1025.4 m/s
301.65 K | 732.643 kg/m3 | 1024.3 m/s
303.15 K | 729.112 kg/m3 and 729.99 kg/m3 | 1013.9 m/s and 1014 m/s and 1012.8 m/s
305.65 K | 727.325 kg/m3 and 726.444 kg/m3 | 1002.4 m/s and 1002.7 m/s and 1001.4 m/s
308.15 K | 723.763 kg/m3 and 724.645 kg/m3 | 990.99 m/s and 991.34 m/s and 989.9 m/s
310.65 K | 721.069 kg/m3 and 721.953 kg/m3 | 979.62 m/s and 980 m/s and 978.47 m/s
313.15 K | 718.357 kg/m3 and 719.245 kg/m3 | 968.16 m/s and 968.63 m/s and 967.03 m/s
315.65 K | 715.636 kg/m3 and 716.525 kg/m3 | 956.8 m/s and 957.31 m/s and 955.73 m/s
318.15 K | 712.897 kg/m3 and 713.786 kg/m3 | 945.54 m/s and 946.03 m/s and 944.34 m/s
320.65 K | 710.141 kg/m3 and 711.028 kg/m3 | 934.24 m/s and 934.76 m/s and 933.01 m/s
323.15 K | 707.381 kg/m3 and 708.28 kg/m3 | 922.97 m/s and 923.46 m/s and 921.93 m/s

Cc1ccccc1 [toluene]
[2]
Conditions | mass density [kg/m3] | speed of sound [m/s]
288.15 K | 871.457 | 1347.5
290.65 K | 869.144 | 1336.3
293.15 K | 866.823 | 1325.3
295.65 K | 864.5 | 1314.3
298.15 K | 862.173 | 1303.4
300.65 K | 859.845 | 1292.6
303.15 K | 857.513 | 1281.9
305.65 K | 855.175 | 1271.2
308.15 K | 852.838 | 1260.5
310.65 K | 850.494 | 1249.8
313.15 K | 848.146 | 1239.2
315.65 K | 845.794 | 1228.6
318.15 K | 843.437 | 1218
320.65 K | 841.075 | 1207.3
323.15 K | 838.706 | 1196.6

CC(C)(C)O [2-methylpropan-2-ol] + COC(C)(C)C
[1]
Conditions | mass density [kg/m3] | speed of sound [m/s]
301.65 K | 777.762 | 1109
303.15 K | 775.212 | 1099
305.65 K | 772.623 | 1088.3
308.15 K | 770.015 | 1077.7
310.65 K | 767.391 | 1067.2
313.15 K | 764.739 | 1056.7
315.65 K | 762.054 | 1046.1
318.15 K | 759.355 | 1035.7
320.65 K | 756.633 | 1025.2
323.15 K | 753.891 | 1014.8

c1ccccc1 [benzene]
[2]
Conditions | mass density [kg/m3] | speed of sound [m/s]
288.15 K | 884.183 | 1345.5
290.65 K | 881.521 | 1333.4
293.15 K | 878.856 | 1321.6
295.65 K | 876.19 | 1309.9
298.15 K | 873.52 | 1298.3
300.65 K | 870.847 | 1286.7
303.15 K | 868.172 | 1275.1
305.65 K | 865.49 | 1263.6
308.15 K | 862.805 | 1252.1
310.65 K | 860.118 | 1240.7
313.15 K | 857.425 | 1229.3
315.65 K | 854.73 | 1217.9
318.15 K | 852.032 | 1206.7
320.65 K | 849.331 | 1195.5
323.15 K | 846.641 | 1184.6
